In paper PMC2908543, “Uropathogenic Escherichia coli Modulates Immune Responses and Its Curli Fimbriae Interact with the Antimicrobial Peptide LL-37” (PLoS Pathogens, 2010):
Entries after “also recorded” stand apart in the source; their conditions may differ.

Experiments:
[1] = system: curli-mediated biofilm formation by E. coli; assay: Effect on formation of biofilm, crystal violet microtiter plate; assay type: cell-based, Escherichia coli
Protocol: To measure the ability of the bacteria to adhere and to form biofilm a crystal violet assay in polystyrene microtiter plates (Costar, Corning, NY, USA) was performed. Bacteria were grown in Luria-Bertani (LB) broth without salt for 24 h at 37°C without shaking. Biofilm was then stained with crystal violet (3%). The dye was solubilized with ethanol (95%) and the optical density was measured at 570 nm.
Plates were filled with 90 µL bacterial culture of planktonic cells and 10 µL of aqueous solution of LL-37 in the same concentrations as in the susceptibility assay. As control peptides, sLL-37 (Innovagen AB) and VIP [27] with similar structural properties as LL-37 were utilized. The plates were incubated without shaking at 37°C for 20 h. After incubation, the amount of biofilm formed was determined as described above.

[2] = system: wild-type curli; assay: Precipitation of LL-37 with wild-type curli, Western blot of supernatant; assay type: binding, Escherichia coli; details: 0.1 µM LL-37 in PBS with 5 µM wild-type curli, 1 h at 37°C
Protocol: The cellulose-deficient isogenic mutant of E. coli No. 12 was used to purify wild-type curli, as has been described. Colonies were harvested and suspended in 0.05 M Tris-buffer by using an omnimixer. Bacterial cell debris was discarded by centrifugation at 8000×g for 15 min and curli protein was precipitated by adding 0.1 M MgCl2 and 0.15 M NaCl. The aggregated curli were centrifuged at 16000×g for 15 min, and the pellet was dissolved in 10 mM TRIS, 1 mM EDTA, pH 7.5 with 2% 3-((3-cholamidopropyl)dimethylammonium)-1-propanesulfonate (CHAPS). After incubation for 45 min at 95°C, the solution was centrifuged at 20000×g for 10 min. The pellet containing curli was washed three times with water. Finally, curli were suspended in PBS and used for binding studies with LL-37.
LL-37 (0.1 µM in PBS) was mixed with 5 µM wild-type curli, or 5 µM recombinant polymerized CsgA. As control, the same concentration of LL-37 without curli or CsgA was utilized. The samples were incubated for 1 h at 37°C with shaking and centrifuged for 30 min at 10000×g. An aliquot of the supernatants was analyzed for the presence of LL-37 with Western blot.
Sample preparation and SDS-PAGE was carried out as described above and Western blot was performed as previously described. […]

[3] = system: recombinant polymerized CsgA; assay: Precipitation of LL-37 with polymerized CsgA, Western blot of supernatant; assay type: binding, Escherichia coli; details: 0.1 µM LL-37 in PBS with 5 µM recombinant polymerized CsgA, 1 h at 37°C
Protocol: (§1) CsgA-His6 and CsgG, a lipoprotein that is required for CsgA secretion, were overexpressed in LSR12 (C600::csg). The purification procedure of recombinant CsgA-His6 was performed as previously described with some modifications. The filtrate was incubated with nickel-nitrilotriacetic acid (Ni-NTA) agarose (Invitrogen) for 1 h at 4°C with shaking, centrifuged at 200×g for 5 min and transferred to a polyprep chromatography column (Bio-Rad, Hercules, CA, USA). To confirm protein identity of CsgA-His6, the isolated protein was prepared and subjected to SDS-PAGE as described below, and thereafter the protein was transferred from the gel to a polyvinylidene fluoride (PVDF) membrane (Invitrogen) at 160 mA for 60 min. The band of 15 kDa, corresponding to the molecular weight of CsgA-His6, was excised from the membrane stained with Coomassie Blue and analysed with N-terminal sequence analysis as has been described. Since it has previously been shown that CsgA-His6 has the same polymerizing properties as wild-type CsgA [59], we refer to CsgA-His6 as CsgA.
LL-37 (0.1 µM in PBS) was mixed with 5 µM wild-type curli, or 5 µM recombinant polymerized CsgA. As control, the same concentration of LL-37 without curli or CsgA was utilized. […] An aliquot of the supernatants was analyzed for the presence of LL-37 with Western blot. […]

[4] = target: T1, monomeric CsgA (Escherichia coli, UniProt P28307); assay: Surface plasmon resonance, monomeric CsgA; details: monomeric CsgA immobilized (2000 response units), 0.1 µM peptide, 20 µl/min for 3 min, HBS-EP, Biacore 3000; binding constants not determinable
T1 construct: made in house; host or cells: E. coli LSR12 (C600::csg), co-expressed with CsgG
T1 sequence (P28307 21-151): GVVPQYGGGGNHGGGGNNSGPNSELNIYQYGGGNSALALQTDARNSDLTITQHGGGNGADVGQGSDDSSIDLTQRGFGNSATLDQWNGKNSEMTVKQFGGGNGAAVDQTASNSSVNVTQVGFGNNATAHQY
Protocol: Binding analysis of LL-37 to both monomeric and polymeric CsgA was performed with surface plasmon resonance (Biacore 3000 instrument; Biacore AB, Uppsala, Sweden). Both monomeric and polymeric CsgA was immobilized on a CM5 sensor chip (Biacore AB) surface by amine coupling. The chip surface was normalized in 70% glycerol and lanes on the chip were activated with injection of 35 µL 0.05 M N-hydroxysuccinimide (NHS)/0.2 M N-ethyl-N′-[3-dimethylamino) propyl]carbodiimide (EDC). Polymeric or monomeric CsgA (1 µM in 10 mM sodium acetate, pH 4.5) was then immobilized on the chip to 7000 response units and 2000 response units, respectively. After immobilization, the lanes were subjected to 60 µL ethanolamine (1 M, pH 8.5) to deactivate remaining activated carboxylic groups. One lane, activated and deactivated, was used as negative control (without addition of CsgA). Standard Biacore HBS-EP (Biacore AB) was utilized as running buffer, and 0.1 µM LL-37, sLL-37 or VIP were injected at 20 µl/min for 3 min. The surface was regenerated after each cycle with 100 mM HCl.

[5] = target: T2, CsgA polymerization (Escherichia coli, UniProt P28307); assay: CsgA polymerization, Thioflavin T assay, Tecan plate reader; assay type: biochemical; details: 20 µM ThT, 37°C
T2 construct: made in house; host or cells: E. coli LSR12 (C600::csg), co-expressed with CsgG
T2 sequence (P28307 21-151): as above
Protocol: as §1
Purified recombinant monomeric CsgA (10 µM) with or without different concentrations of the peptides LL-37, sLL-37 or VIP was mixed with 20 µM of the fiber-specific fluorescent probe ThT (Sigma-Aldrich). Fluorescence was measured with a Tecan infinite M200 reader (Tecan Nordic AB, Täby, Sweden). The excitation and emission wavelength was 430 and 490 nm, respectively. Measurements were conducted at 37°C every 10 min after shaking the sample for five seconds. Background fluorescence of the peptides themselves was subtracted.

[6] = system: CsgA fiber formation; assay: CsgA fiber formation, Thioflavin T, confocal microscopy; assay type: biochemical, Escherichia coli
Protocol: as §1
Recombinant monomeric CsgA was mixed with equimolar LL-37, sLL-37 or VIP and 20 µM ThT, and incubated over night at 37°C, washed twice, and suspended in 10 mM Kpi, pH 7.2 before mounting in ProLong Gold antifade mounting medium (Invitrogen). Images were acquired on a Leica TCS SP5 confocal microscope using a 20× objective. Fluorescence intensity was quantified using ImageJ software. The difference in fluorescence intensity of CsgA with and without peptides was calculated and corrected for the contribution of fluorescence from the peptides themselves.

CC[C@H](C)[C@H](NC(=O)[C@H](CCCCN)NC(=O)[C@H](CCC(=O)O)NC(=O)[C@H](CCCCN)NC(=O)[C@H](CO)NC(=O)[C@H](CCCCN)NC(=O)[C@H](CCCNC(=N)N)NC(=O)[C@H](Cc1ccccc1)NC(=O)[C@H](Cc1ccccc1)NC(=O)[C@H](CC(=O)O)NC(=O)CNC(=O)[C@H](CC(C)C)NC(=O)[C@@H](N)CC(C)C)C(=O)NCC(=O)N[C@@H](CCCCN)C(=O)N[C@@H](CCC(=O)O)C(=O)N[C@@H](Cc1ccccc1)C(=O)N[C@@H](CCCCN)C(=O)N[C@@H](CCCNC(=N)N)C(=O)N[C@H](C(=O)N[C@H](C(=O)N[C@@H](CCC(N)=O)C(=O)N[C@@H](CCCNC(=N)N)C(=O)N[C@H](C(=O)N[C@@H](CCCCN)C(=O)N[C@@H](CC(=O)O)C(=O)N[C@@H](Cc1ccccc1)C(=O)N[C@@H](CC(C)C)C(=O)N[C@@H](CCCNC(=N)N)C(=O)N[C@@H](CC(N)=O)C(=O)N[C@@H](CC(C)C)C(=O)N[C@H](C(=O)N1CCC[C@H]1C(=O)N[C@@H](CCCNC(=N)N)C(=O)N[C@H](C(=O)N[C@@H](CCC(=O)O)C(=O)N[C@@H](CO)C(=O)O)[C@@H](C)O)C(C)C)[C@@H](C)CC)C(C)C)[C@@H](C)CC [LL-37]
reduction of biofilm formation ([1]; 2.5 µM LL-37, wild-type strain expressing curli and cellulose (data not shown)): more than 80% | reduction of biofilm formation ([1]; 2.5 µM peptide, cellulose-negative, curli-expressing E. coli strain, 37°C, 20 h, two experiments in triplicates): more than 80% | biofilm-inhibitory versus bactericidal concentrations ([1]; qualitative comparison): much lower than bactericidal concentrations | LL-37 in supernatants after precipitation [2]: pronounced decrease of LL-37 in supernatants; also recorded: the levels of LL-37 decreased in the supernatants | LL-37 in supernatants after precipitation [3]: pronounced decrease of LL-37 in supernatants; also recorded: the levels of LL-37 decreased in the supernatants | binding / association and dissociation by SPR [4]: higher association with CsgA than the control peptides; also recorded: stronger association and lower dissociation rates | inhibition of CsgA polymerization (ThT fluorescence) ([5]; 10 µM CsgA with different concentrations of peptide): inhibited by LL-37 in a dose-dependent manner | inhibition of CsgA polymerization (ThT fluorescence) ([5]; 10 µM CsgA, molar ratio 1∶1 (CsgA∶LL-37), excitation 430 nm, emission 490 nm): fiber formation was completely inhibited | fluorescence relative to CsgA alone ([6]; CsgA with equimolar peptide (1∶1), 20 µM ThT, 20 h at 37°C, CsgA alone = 1 arbitrary unit, corrected for peptide fluorescence, two experiments): 0.05 arbitrary units | inhibition of CsgA fiber formation versus sLL-37 and VIP ([6]; molar ratio 1∶1, P = 0.007 versus sLL-37 and P = 0.011 versus VIP): significantly stronger than the effect of sLL-37; also recorded: evidently stronger for LL-37
